Reference: patent US8815946B2, “Inhibition of proliferation and fibrotic response of activated corneal stromal cells” (University of Pittsburgh—of the Commonwealth System of …, priority 2008, dated 2014)

Legend:
Type in all cases: cell-based
cellular fibronectin = test: Western blot analyses of cellular fibronectin, human corneal stromal cells; details: TGF-β1, two and four days
Experimental: FIG. 7. Western blot analyses of cellular fibronectin. Human corneal stromal cells in P2 growing in DMEM/F12 with 10% FBS were subcultured into 60 mm tissue culture dishes. After 24 hrs of incubation, the media were replaced with DMEM/F12 medium containing 1% FBS and TGF-β1 with or without (control) different EP concentrations as indicated and incubated for two and four days (media were changed every 24 hours). The cells were extracted in RIPA buffer and the extracts containing 5 μg of total proteins were loaded per lane for Western blot analysis.
Keratocytes or fibroblasts grown under different culture conditions were extracted in RIPA buffer (9.1 mM dibasic sodium phosphate, 1.7 mM monobasic sodium phosphate, 150 mM NaCl, pH, 7.4, 1% Nonidet P-40, 0.5% sodium deoxycholate, 0.1% SDS, 0.03 TIU/mL aprotinin, 1 mM sodium orthovanadate, and 100 μg/mL phenylmethylsulfonyl fluoride (PMSF)). Aliquots of cell extracts containing 50 or 100 μg protein were subjected to SDS-PAGE. […] Immunoreactive bands were detected using chemiluminescence Western chemiluminescence reagents. […]

fibronectin = test: Immunocytochemical analysis of fibronectin expression, human stromal cells; details: human corneal cells treated with TGF-β1
Experimental: FIGS. 6A-6B. Immunocytochemical analysis of fibronectin expression. Normal human stromal cells (FIG. 6A) or rabbit corneal stromal cells (FIG. 6B) in P2 growing in DMEM/F12 with 10% FBS were subcultured into 35 mm tissue culture dishes. After 24 hrs of incubation, the media were replaced with DMEM/F12 medium containing 1% FBS and TGF-β1 with or without (control) 10 mM EP and incubated for four days (media were changed every 24 hours). The cells were fixed and double stained for fibronectin (green) and phalloidin (red) using an indirect fluorescence technique as described herein.
For immunocytochemical analyses, the cells were cultured on glass cover slips or tissue culture dishes. Cells were rinsed with phosphate-buffered saline (PBS), fixed with paraformaldehyde-lysine-periodate and permeabilized with PIPES buffer containing 0.2% Triton X-100, as described previously (Guerriero et al., Invest. Opthalmol. Vis. Sci. 2007; 48: 627-635). Fixed and permeabilized cells were reacted with 10% heat-inactivated goat serum in PBS, pH 7.5, for 45 minutes to block the nonspecific binding of the secondary antibody, rinsed with PBS, and then treated with the primary and secondary antibodies as described previously (Guerriero et al. Invest. Opthalmol. Vis. Sci. 2007; 48: 627-635). Primary antibodies included monoclonal rat anti-α smooth muscle actin (SMA) and anti-fibronectin. […]

[1] = tested on: rabbit corneal stromal cells; test: Cell proliferation analysis, rabbit corneal stromal cells; details: 1% FBS, with TGF-β1 or b-FGF/HS
Experimental: FIG. 2. Effect of ethyl pyruvate on the growth of rabbit corneal stromal cells. Corneal stromal cells in P2 growing in DMEM/F12 with 10% FBS were subcultured into desired number of 35 mm tissue culture dishes. After 24 hrs of incubation, the media were replaced with DMEM/F12 medium containing 1% FBS without EP (labeled “Control), with EP (labeled “Control+EP”); with the same medium containing TGF-β1 without EP (labeled “TGF-β1”) or with EP (labeled “TGF-β1+EP”); or with the same medium containing b-FGF/HS without EP (labeled “FGF/HS”) or with EP (labeled “FGF/HS+EP”). The cells in several marked regions were counted every 24 hours as described in Methods. […]
To study the effect of EP on cell proliferation, normal human corneal fibroblasts growing in DMEM/F12 with 10% FBS were subcultured into the desired number of 35 mm tissue culture dishes at a density of 5×10^4 cells/per dish. […] Several regions were marked on the bottom of the dishes and cells in marked regions were counted at 24 hr intervals for five days. Phase contrast digital micrographs of the cells in the marked fields were captured and the cells in the images were counted using MetaMorph® imaging software. The rate of proliferation was evaluated by determining the number of cells at specific time points after treatment/number of cells at the start of the treatment. […]

CCOC(=O)C(C)=O [ethyl pyruvate]
downregulation of fibronectin by Western blot of cell extracts (including the matrix) (cellular fibronectin): confirmed | fibronectin deposition in the matrix (immunocytochemical) (fibronectin): concentration dependent downregulation | proliferation of rabbit stromal cells [1]: inhibited proliferation
